The assay deals with T1, ErbB2 (Homo sapiens, UniProt P04626).
T1 construct: expressed in transfected cells; host or cells: MCF10A human mammary epithelial cells stably expressing HER2 (MCF10A.HER2; Ueda et al., 2004)
Kind of assay: EphA2 and ErbB2 phosphorylation in MCF10A cells overexpressing HER2 after ErbB2 kinase inhibitor (immunoprecipitation/immunoblot). The note with it: 10 mg/ml AG825 for 24 or 48 hours. It is filed as cell-based. The protocol: For Ras and Rho/Rac pulldown assays, tumor tissue was collected, weighed, mechanically homogenized in phosphate buffered saline (PBS) pelleted, and resuspended in manufacturer recommended assay buffer (Upstate Biotechnology). Approximately […] tumor lysate was used per assay. Ras assays were performed using Raf-1 Ras binding domain-GST assay reagent (Upstate Biotechnology) as per manufacturer's protocol. Rho assays were performed using Rhotekin binding domain-GST reagents as previously described (Fang et al., 2005). For some co-immunoprecipitation assays, COST cells were co-transfected with […] each of myc-tagged erbB2 (pcDNA3-erbB2) and ephA2 (pcDNA3-EphA2) using Lipofectamine 2000 (Invitrogen). Cells were lysed in 1% NP-40 Buffer (10 mM Tris-HCl pH 7.5, 150 mM NaCl, 2 mM EDTA, 1% NP-40 plus 50 mM protease inhibitors). Lysates were used for immunoprecipitation with an anti-myc (Sigma-Aldrich) and anti-EphA2 antibodies (Santa Cruz, sc-924) antibodies. Immune complexes were resolved on SDS-PAGE and western blotted using anti-EphA2 and anti-myc antibodies. EphA2 was immunoprecipitated from MMTV-Neu cells, followed by treatment of half the samples with the 1 mM of the cross-linking agent DTSSP. Immunoprecipitates were subjected to western blot analysis using anti-ErbB2 (Neomarkers, 1:2000). EphA2 and ErbB2 were immunoprecipiated from MCF10A and MCF10A.HER2 cells as described above. […]
On the technique in general: A western blot detects proteins with antibodies after separation by electrophoresis.

The record followed here is US20100254996A1, “SYNERGISTIC TREATMENT OF CELLS THAT EXPRESS EPHA2 AND ERBB2” (MEDIMMUNE, LLC, priority 2007, published 2010).

T1 sequence (P04626 23-1255): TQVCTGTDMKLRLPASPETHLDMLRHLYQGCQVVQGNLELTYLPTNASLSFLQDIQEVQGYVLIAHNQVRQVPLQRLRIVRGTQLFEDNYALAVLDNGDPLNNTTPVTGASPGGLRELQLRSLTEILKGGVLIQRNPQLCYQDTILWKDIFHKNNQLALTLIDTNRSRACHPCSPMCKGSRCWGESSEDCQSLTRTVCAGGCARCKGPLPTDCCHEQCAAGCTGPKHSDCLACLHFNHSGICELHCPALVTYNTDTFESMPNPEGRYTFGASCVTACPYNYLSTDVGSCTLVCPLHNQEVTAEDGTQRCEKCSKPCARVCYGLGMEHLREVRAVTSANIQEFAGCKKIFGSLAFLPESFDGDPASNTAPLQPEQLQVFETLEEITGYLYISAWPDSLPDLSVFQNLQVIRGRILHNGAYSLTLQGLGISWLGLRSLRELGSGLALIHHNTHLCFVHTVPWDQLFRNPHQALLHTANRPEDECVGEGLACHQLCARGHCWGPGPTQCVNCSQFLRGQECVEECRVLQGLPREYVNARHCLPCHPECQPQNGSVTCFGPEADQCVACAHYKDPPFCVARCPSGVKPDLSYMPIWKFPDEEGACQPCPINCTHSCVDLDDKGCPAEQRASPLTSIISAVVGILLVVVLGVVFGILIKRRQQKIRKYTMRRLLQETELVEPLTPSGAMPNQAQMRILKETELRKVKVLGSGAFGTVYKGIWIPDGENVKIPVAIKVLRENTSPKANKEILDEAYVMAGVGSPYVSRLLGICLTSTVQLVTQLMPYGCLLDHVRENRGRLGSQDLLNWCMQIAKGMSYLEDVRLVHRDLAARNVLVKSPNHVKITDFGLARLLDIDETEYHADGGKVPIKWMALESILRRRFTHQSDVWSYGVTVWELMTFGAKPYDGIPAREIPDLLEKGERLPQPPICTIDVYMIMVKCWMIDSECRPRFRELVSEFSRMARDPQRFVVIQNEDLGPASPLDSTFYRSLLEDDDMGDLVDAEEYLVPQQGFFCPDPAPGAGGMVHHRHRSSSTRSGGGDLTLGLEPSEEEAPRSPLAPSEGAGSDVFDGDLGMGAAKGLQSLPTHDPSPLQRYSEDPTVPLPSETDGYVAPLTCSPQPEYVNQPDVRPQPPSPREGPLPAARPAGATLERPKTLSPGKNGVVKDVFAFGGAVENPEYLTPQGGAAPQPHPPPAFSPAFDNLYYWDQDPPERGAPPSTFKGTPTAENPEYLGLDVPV

Turning to `COc1cc(/C=C(\C#N)C(N)=O)cc(CSc2nc3ccccc3s2)c1O` [AG825], the EphA2 phosphorylation entry is reported as “reduced” and the ErbB2 phosphorylation result was “reduced”.
